Patent US6384261B1, “Phosphoramidates, phosphinic amides and related compounds and the use thereof to modulate the activity of endothelin” (Texas Biotechnology Corporation, priority 1996, dated 2002)
Where two headings read alike, the source gives them in different places.

Assays:
[1] = target: T1, human ETA receptors (Homo sapiens, UniProt P25101); assay: Binding Test #1: inhibition of 125I-endothelin-1 binding to ETA receptors (TE 671 cell membranes)
T1 construct: endogenous in cells; host or cells: TE 671 cells (ATCC HTB 139), membrane preparation
T1 sequence (P25101 21-427): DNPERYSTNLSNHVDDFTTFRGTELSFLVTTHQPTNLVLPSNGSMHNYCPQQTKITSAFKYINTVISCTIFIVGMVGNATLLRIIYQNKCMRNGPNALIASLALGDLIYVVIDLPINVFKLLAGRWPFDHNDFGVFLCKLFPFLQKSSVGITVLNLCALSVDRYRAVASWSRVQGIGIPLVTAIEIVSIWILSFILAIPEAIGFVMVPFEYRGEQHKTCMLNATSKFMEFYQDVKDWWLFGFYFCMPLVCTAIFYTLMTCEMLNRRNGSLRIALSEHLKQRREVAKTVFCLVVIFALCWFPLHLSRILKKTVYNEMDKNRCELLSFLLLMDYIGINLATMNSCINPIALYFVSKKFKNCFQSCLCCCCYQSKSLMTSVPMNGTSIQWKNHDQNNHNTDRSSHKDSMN
Source text: (§1) Compounds that are potential endothelin antagonists are identified by testing their ability to compete with ^125I-labeled ET-1 for binding to human ETA receptors or ETB receptors present on isolated cell membranes. The effectiveness of the test compound as an antagonist or agonist of the biological tissue response of endothelin can also be assessed by measuring the effect on endothelin induced contraction of isolated rat thoracic aortic rings. The ability of the compounds to act as antagonists or agonists for ETB receptors can be assessed by testing the ability of the compounds to inhibit endothelin-1 induced prostacyclin release from cultured bovine aortic endothelial cells.
TE 671 cells (ATCC Accession No. HTB 139) express ETA receptors. These cells were grown to confluence in T-175 flasks. Cells from multiple flasks were collected by scraping, pooled and centrifuged for 10 min at 190×g. The cells were resuspended in phosphate buffered saline (PBS) containing 10 mM EDTA using a Tenbroeck homogenizer. The suspension was centrifuged at 4° C. at 57,800×g for 15 min, the pellet was resuspended in 5 ml of buffer A (5 mM HEPES buffer, pH 7.4 containing aprotinin (100 KIU/ml)) and then frozen and thawed once. 5 ml of Buffer B (5 mM HEPES Buffer, pH 7.4 containing 10 mM MnCl2 and 0.001% deoxyribonuclease Type 1) was added, the suspension mixed by inversion and then incubated at 37° C. for 30 minutes. The mixture was centrifuged at 57,800×g as described above, the pellet washed twice with buffer A and then resuspended in buffer C (30 mM HEPES buffer, pH 7.4 containing aprotinin (100 KIU/ml) to give a final protein concentration of 2 mg/ml and stored at −70° C. until use.
The membrane suspension was diluted with binding buffer (30 mM HEPES buffer, pH 7.4 containing 150 mM NaCl, 5 mM MgCl2, 0.5% Bacitracin) to a concentration of 8 μg/50 μl. ^125I-endothelin-1 (3,000 cpm, […]) was added to 50 μL of either: (A) endothelin-1 (for non specific binding) to give a final concentration 80 nM); (B) binding buffer for total binding); or (C) a test compound (final concentration 1 nM to 100 μM). The membrane suspension (50 μL), containing up to 8 μg of membrane protein, was added to each of (A), (B), or (C). Mixtures were shaken, and incubated at 4° C. for 16-18 hours, and then centrifuged at 4° C. for 25 min at 2,500×g. Alternatively, the incubation can be conducted at other temperatures, such as 24° C. When incubated at 24° C., the IC50 concentrations are 2- to 10-fold higher than when the incubation is conducted at 4° C.
The supernatant, containing unbound radioactivity, was decanted and the pellet counted on a Genesys multiwell gamma counter. The degree of inhibition of binding (D) was calculated according to the following equation: [formula]
Each test was generally performed in triplicate.

[2] = target: T2, human ETB receptor (Homo sapiens, UniProt P24530); assay: Binding Test #2: inhibition of 125I-endothelin-1 binding to ETB receptors (transfected COS7 cell membranes)
T2 construct: expressed in transfected cells; host or cells: COS7 cells, membrane preparation
T2 sequence (P24530 27-442): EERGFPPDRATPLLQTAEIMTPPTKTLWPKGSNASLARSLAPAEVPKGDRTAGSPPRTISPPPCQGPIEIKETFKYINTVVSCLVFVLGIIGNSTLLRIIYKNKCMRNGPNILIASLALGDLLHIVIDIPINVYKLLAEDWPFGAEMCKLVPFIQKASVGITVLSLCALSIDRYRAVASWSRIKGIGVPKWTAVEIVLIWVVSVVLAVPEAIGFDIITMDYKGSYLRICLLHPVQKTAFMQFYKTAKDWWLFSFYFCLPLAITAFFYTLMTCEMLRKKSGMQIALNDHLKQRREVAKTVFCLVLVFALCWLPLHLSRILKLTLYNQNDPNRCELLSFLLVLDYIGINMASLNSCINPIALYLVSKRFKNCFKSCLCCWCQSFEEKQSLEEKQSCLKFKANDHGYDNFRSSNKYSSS
Source text: as §1
COS7 cells were transfected with DNA encoding the ETB receptor, The resulting cells, which express the human ETB receptor, were grown to confluence in T-150 flasks. Membrane was prepared as described above. The binding assay was performed as described above using the membrane preparation diluted with binding buffer to a concentration of 1 μg/50 μl.
Briefly, the COS7 cells, described above, that had been transfected with DNA encoding the ETB receptor and express the human ETB receptor on their surfaces were grown to confluence in T-175 flasks. Cells from multiple flasks were collected by scraping, pooled and centrifuged for 10 min at 190×g. The cells were resuspended in phosphate buffered saline (PBS) containing 10 mM EDTA using a Tenbroeck homogenizer. The suspension was centrifuged at 4° C. 57,800×g for 15 min, the pellet was resuspended in 5 ml of buffer A (5 mM HEPES buffer, pH 7.4 containing aprotinin (100 KIU/ml)) and then frozen and thawed once. Five ml of Buffer B (5 mM HEPES Buffer, pH 7.4 containing 10 mM MnCl2 and 0.001% deoxyribonuclease Type 1) was added, the suspension mixed by inversion and then incubated at 37° C. for 30 minutes. The mixture was centrifuged at 57,800×g as described above, the pellet washed twice with buffer A and then resuspended in buffer C (30 mM HEPES buffer, pH 7.4 containing aprotinin (100 KIU/ml) to give a final protein concentration of 2 mg/ml.
The binding assay was performed as described above using the membrane preparation diluted to give 1 μg/50 μl of binding buffer.

[3] = target: ETA receptor; settings: read-out: IC50, inhibition of 125I-labelled endothelin-1 binding, cited from earlier work
[4] = tested on: ETB receptors; settings: concentrations up to 100 μM; cited from earlier work
[5] = tested on: ETA and ETB receptors; assay: Summary statements on IC50 for ETA and ETB receptors / endothelin antagonist activity; type: binding, human; settings: ETA versus ETB
Source text: as §1
The membrane suspension was diluted with binding buffer (30 mM HEPES buffer, pH 7.4 containing 150 mM NaCl, 5 mM MgCl2, 0.5% Bacitracin) to a concentration of 8 μg/50 μl. ^125I-endothelin-1 (3,000 cpm, […]) was added to 50 μL of either: (A) endothelin-1 (for non specific binding) to give a final concentration 80 nM); (B) binding buffer for total binding); or (C) a test compound (final concentration 1 nM to 100 μM). The membrane suspension (50 μL), containing up to 8 μg of membrane protein, was added to each of (A), (B), or (C). […]
The IC50 for each of the compounds of the preceding Examples for ETA and ETB receptors has been measured. […]

[6] = tested on: isolated vascular strips; settings: read-out: EC50, contractile agent; cited from earlier work
[7] = incubation at 4° C., results generally from 1, 2, or 3 experiments, read-out: ETA (μM) IC50
[8] = incubation at 4° C., results generally from 1, 2, or 3 experiments, read-out: ETB (μM) IC50

Cc1noc(NP(=O)(Oc2ccccc2)Oc2ccccc2)c1C [N-(3,4-dimethyl-5-isoxazolyl)diphenylphosphoramidate]
IC50 [1]: 2.5 µM | IC50 [2]: > 100 µM

CCOP(=O)(Nc1onc(C)c1Br)OCC [N-(4-bromo-3-methyl-5-isoxazolyl)diethylphosphoramidate]
IC50 [1]: 20 µM | IC50 [2]: > 100 µM

cyclo(D-Glu-L-Ala-allo-D-lle-L-Leu-D-Trp) [BE-18257B]
IC50 ([3]; aortic smooth muscle): 1400 nM | IC50 ([3]; cultured aortic smooth muscle cells): 500 nM | IC50 ([3]; ventricle membranes): 800 nM | inhibition of binding to receptors in tissues in which ETB receptors predominate [4]: fails to inhibit binding

Cc1noc(NP(=O)(Oc2ccccc2)Oc2ccccc2)c1Br [N-(4-bromo-3-methyl-5-isoxazolyl)diphenylphosphoramidate]
IC50 [1]: 0.58 µM | IC50 for ETA receptors substantially less than for ETB receptors (selectivity) [5]: 10 to 100 fold | IC50 [2]: 77 µM

Cc1noc(NP(=O)(c2ccccc2)c2ccccc2)c1C [N-(3,4-dimethyl-5-isoxazolyl)diphenylphosphinic Amide]
IC50 [1, 7]: 7.1 µM | IC50 [2, 8]: > 100 µM

Cc1noc(NP(=O)(c2ccccc2)c2ccccc2)c1Br [N-(4-bromo-3-methyl-5-isoxazolyl)diphenylphosphinic Amide]
IC50 [1, 7]: 0.84 µM | IC50 [2, 8]: 85 µM

endothelin-1: potent twenty-one amino acid peptide vasoconstrictor
EC50 [6]: 0.4 nM
